Laboratory results taken from US7833513B2, “Treatment of Alzheimer's Disease” (Rhode Island Hospital, priority 2004, dated 2010).

Experiments:
insulin receptor = target: T1, insulin receptor (Rattus norvegicus, UniProt P15127); test: ic-STZ ± PPAR agonist: equilibrium and saturation binding to insulin receptors in the brain; assay type: in vivo, Long Evans rat; conditions: for BMAX, insulin receptor saturation binding in brains of treated rats: [125I]-insulin tracer, pooled brain membranes, 4 weeks after ic-STZ ± IP PPAR agonist; for mean insulin receptor binding: temporal lobe and cerebellum
T1 construct: from tissue; host or cells: rat brain (temporal lobe)
Method: (§1) On the same day, sub-sets of the ic-STZ group were given a single intra-peritoneal injection of vehicle (saline), or a PPAR-α (GW7647; 25 ug/Kg), PPAR-δ (L-165,041; 2 μg/Kg), or PPAR-γ (F-L-Leu; 20 μg/Kg) activator (CalBiochem, Carlsbad, Calif.). […] In addition, at 4 weeks of age, memory and learning were evaluated using a Morris Water Maze (R. W. Hickey, M. Akino, S. Strausbaugh, G. M. De Courten-Myers. Use of the Morris water maze and acoustic startle chamber to evaluate neurologic injury after asphyxial arrest in rats. Pediatr Res 39(1) (1996), 77-84). The procedures and use of rats in these experiments were approved by the Lifespan-Rhode Island Hospital IACUC committee.
Membrane protein extracted from fresh frozen brain tissue was used for competitive equilibrium and saturation binding assays. For total binding in equilibrium binding assays, duplicate samples were incubated in 100 μl reactions containing binding buffer (100 mM HEPES, pH 8.0, 118 mM NaCl, 1.2 mM MgSO4, 8.8 mM dextrose, 5 mM KCl, 1% bovine serum albumin) and 100 nCi/ml of [^125I] […] To measure total binding in saturation binding assays, samples from 8-12 brains per group were pooled in equal proportions, and duplicate samples were incubated in 100 μl reactions containing binding buffer and 0.0031 to 1 μCi/ml of [^125I] […] To detect non-specific binding in the equilibrium and saturation binding assays, duplicate reactions were incubated with the same concentrations of radiolabeled tracer plus 0.1 μM unlabeled (cold) competitive ligand. After 16 hours incubation at 4° C., bound radiolabeled tracer was precipitated with bovine gamma globulin and polyethylene glycol 8000. The precipitate (bound ligand) and supernatant (free ligand) fractions were counted in an LKB CompuGamma CS Gamma counter. Specific binding was calculated by subtracting fmols of non-specific binding, i.e. amount bound in the presence of excess cold ligand, from total fmols bound in the absence of unlabeled competitive ligand. GraphPad Prism 4 software (San Diego, Calif.) was used to calculate saturation binding (BMAX) and binding affinity (Kd) for each data set.

brain gene expression = test: ic-STZ ± PPAR agonist: real time quantitative RT-PCR of temporal lobe, hypothalamus, cerebellum; assay type: in vivo, Long Evans rat; conditions: for APP mRNA relative to control and ic-STZ: cerebella; for Tau gene expression / APP gene expression: temporal lobe and hypothalamus; for ic-STZ associated reductions in IGF-II expression: rat, in vivo
Method: as §1
Real Time Quantitative RT-PCR: Total RNA isolated from the temporal lobe, hypothalamus, and cerebellum was reverse transcribed using the AMV First Strand cDNA synthesis kit (Roche Diagnostics Corporation, Indianapolis, Ind.) and random oligodeoxynucleotide primers. […] In addition, pathological shifts in cell type associated with ic-STZ-mediated neurodegeneration were detected by measuring the mRNA levels of Hu (neurons), GFAP (astrocytes), myelin-associated glycloprotein (MAG-1; oligodendroglia), and allograft inflammatory factor-1 (AIF-1; microglia) (E. J. Rivera, A. Goldin, N. Fulmer, R. Tavares, J. R. Wands, S. M. de la Monte, J. Alzheimers Dis 8(3) (2005), 247-68). Ribosomal 18S RNA levels measured in parallel reactions were used to calculate the relative abundance of each mRNA transcript (J. E. Yeon, S. Califano, J. Xu, J. R. Wands, S. M. De La Monte. Potential role of PTEN phosphatase in ethanol-impaired survival signaling in the liver. Hepatology 38(3) (2003), 703-14, J. Xu, J. Eun Yeon, H. Chang, G. Tison, G. Jun Chen, J. R. Wands, et al. Ethanol impairs insulin-stimulated neuronal survival in the developing brain: Role of PTEN phosphatase. J Biol Chem (2003)). The gene expression levels were measured by real time quantitative RT-PCR Relative mRNA abundance was determined from the ng ratios of specific mRNA to 18S (J. E. Yeon, S. Califano, J. Xu, J. R. Wands, S. M. De La Monte. Potential role of PTEN phosphatase in ethanol-impaired survival signaling in the liver. Hepatology 38(3) (2003), 703-14, J. Xu, J. Eun Yeon, H. Chang, G. Tison, G. Jun Chen, J. R. Wands, et al. Ethanol impairs insulin-stimulated neuronal survival in the developing brain: Role of PTEN phosphatase. J Biol Chem (2003)).

[1] = temporal lobe, hypothalamus, cerebellum

T1 sequence (P15127 27-759 limits assumed): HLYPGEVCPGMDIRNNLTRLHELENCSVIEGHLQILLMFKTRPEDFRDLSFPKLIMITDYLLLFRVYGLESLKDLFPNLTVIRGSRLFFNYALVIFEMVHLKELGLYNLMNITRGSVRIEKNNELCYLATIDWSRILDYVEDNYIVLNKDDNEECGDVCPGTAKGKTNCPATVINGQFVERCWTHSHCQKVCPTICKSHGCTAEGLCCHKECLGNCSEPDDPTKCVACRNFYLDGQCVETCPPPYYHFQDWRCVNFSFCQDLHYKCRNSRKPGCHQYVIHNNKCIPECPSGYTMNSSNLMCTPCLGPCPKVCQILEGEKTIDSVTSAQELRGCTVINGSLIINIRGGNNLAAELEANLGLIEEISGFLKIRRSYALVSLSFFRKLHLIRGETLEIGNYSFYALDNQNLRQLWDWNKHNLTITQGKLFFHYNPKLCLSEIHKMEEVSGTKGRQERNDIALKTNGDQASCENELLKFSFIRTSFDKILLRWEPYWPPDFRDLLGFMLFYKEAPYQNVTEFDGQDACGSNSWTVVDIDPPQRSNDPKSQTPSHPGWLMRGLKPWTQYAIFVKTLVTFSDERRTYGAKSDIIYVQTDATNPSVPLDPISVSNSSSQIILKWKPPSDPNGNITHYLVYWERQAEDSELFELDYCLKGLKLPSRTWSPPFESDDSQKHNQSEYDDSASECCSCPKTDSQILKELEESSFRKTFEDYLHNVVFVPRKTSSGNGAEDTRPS
T1 sequence (P15127 764-1383 limits assumed): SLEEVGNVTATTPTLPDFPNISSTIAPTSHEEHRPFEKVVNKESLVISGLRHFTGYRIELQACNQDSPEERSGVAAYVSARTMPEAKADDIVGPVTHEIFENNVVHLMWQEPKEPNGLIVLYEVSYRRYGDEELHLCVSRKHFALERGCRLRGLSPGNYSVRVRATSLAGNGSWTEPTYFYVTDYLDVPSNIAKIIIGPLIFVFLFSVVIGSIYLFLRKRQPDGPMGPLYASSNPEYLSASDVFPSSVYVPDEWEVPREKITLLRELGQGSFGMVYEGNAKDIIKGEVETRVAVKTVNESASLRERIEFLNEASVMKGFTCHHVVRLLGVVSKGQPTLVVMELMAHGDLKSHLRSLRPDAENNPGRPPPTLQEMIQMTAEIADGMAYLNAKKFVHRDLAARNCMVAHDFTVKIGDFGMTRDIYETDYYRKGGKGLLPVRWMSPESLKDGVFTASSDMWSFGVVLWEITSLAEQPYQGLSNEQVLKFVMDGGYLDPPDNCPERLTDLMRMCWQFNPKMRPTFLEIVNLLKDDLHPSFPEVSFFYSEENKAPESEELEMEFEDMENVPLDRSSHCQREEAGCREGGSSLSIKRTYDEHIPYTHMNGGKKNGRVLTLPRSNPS

Row | SMILES | BMAX, insulin receptor saturation binding in brains of treated rats (insulin receptor) [fmol/mg protein] | mean insulin receptor binding (insulin receptor) | APP mRNA relative to control and ic-STZ (brain gene expression) | AChE mRNA compared with ic-STZ treatment alone (brain gene expression; cerebellum) | AIF-1 (microglia) expression relative to ic-STZ group (brain gene expression; cerebellum) | ChAT expression (brain gene expression; cerebellum) | GFAP (astrocytes) expression relative to ic-STZ group (brain gene expression; cerebellum) | Hu (neurons) expression relative to ic-STZ group (brain gene expression; cerebellum) | IGF-I mRNA relative to control (brain gene expression; cerebellum) | IGF-II receptor mRNA (brain gene expression; cerebellum) | AChE mRNA (brain gene expression; hypothalamus) | Hu gene expression (brain gene expression; hypothalamus) | NOS 2 mRNA (brain gene expression; temporal lobe) | NOX 1 mRNA (brain gene expression; temporal lobe) | p53 mRNA (brain gene expression; temporal lobe) | IGF-I receptor mRNA (brain gene expression; temporal lobe and cerebellum) | Tau gene expression (brain gene expression) | ic-STZ associated reductions in IGF-II expression (brain gene expression) | APP gene expression (brain gene expression) | other results
1 | CCCc1c(OCCCOc2ccc(OCC(=O)O)cc2)ccc(C(C)=O)c1O [PPAR-δ agonist, L-165,041] | 2.186 | significantly increased | significantly higher | significantly reduced | increased | significantly increased | decreased | increased | significantly increased | significantly increased | significantly increased | significantly increased | comparable to control | comparable to control | comparable to control | significantly increased | restored Tau gene expression to control levels | – | – | insulin receptor binding (insulin receptor; hypothalamus): significantly increased
2 | CC(C)(Sc1ccc(CCN(CCCCC2CCCCC2)C(=O)NC2CCCCC2)cc1)C(=O)O [PPAR-α agonist, GW7647] | 1.172 | significantly increased | – | – | – | significantly increased | – | – | – | – | – | significantly increased | – | significantly reduced | – | – | – | variably prevented | significantly reduced | MAG-1 gene expression (brain gene expression; hypothalamus): increased
3 | CC(C)C[C@H](NC(=O)OCC1c2ccccc2-c2ccccc21)C(=O)O [PPAR-γ agonist, F-L-Leu] | 1.127 | significantly increased | significantly higher | significantly reduced | increased | significantly increased | decreased | increased | significantly increased | significantly increased | significantly increased | – | – | significantly reduced | – | significantly increased | restored Tau gene expression to control levels | variably prevented | significantly reduced | –
4 | CN(N=O)C(=O)NC1C(O)OC(CO)C(O)C1O (stereo not drawn) [STZ] | 0.8421 | – | – | – | – | – | – | – | – | – | significantly increased | – | significantly increased | significantly increased | significantly increased | – | – | – | – | steady-state insulin receptor binding (insulin receptor; [1]): significantly reduced; IGF-II receptor expression (brain gene expression; hypothalamus): did not significantly impair; IGF-I mRNA (brain gene expression; hypothalamus and cerebellum): not significantly reduced; IGF-I receptor expression (brain gene expression; hypothalamus and cerebellum): significantly reduced; AChE expression (brain gene expression; temporal lobe): significantly reduced; IGF-I receptor expression (brain gene expression; temporal lobe): did not significantly impair; NOS 3 mRNA (brain gene expression; temporal lobe): significantly increased; ChAT mRNA (brain gene expression; temporal lobe and cerebellum): significantly reduced; IGF-II receptor expression (brain gene expression; temporal lobe and cerebellum): significantly reduced; insulin receptor gene expression (brain gene expression; [1]): significantly reduced
